In PubChem BioAssay (NCI):
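Briefly, cells in 96-well plates were exposed to five compound concentrations for 48 h, and endpoints were estimated by linear interpolation. TGI: concentration producing complete growth inhibition.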

Columns and labels:
Assay in all cases: DTP human tumour cell line panel, 48 h
[1] = test system: HT29 colon
[2] = test system: NCI/ADR-RES ovarian
[3] = test system: SK-MEL-5 melanoma
[4] = test system: SF-295 CNS
[5] = test system: ACHN renal
[6] = test system: RXF 393 renal
[7] = test system: A498 renal
[8] = test system: CAKI-1 renal
[9] = test system: DU-145 prostate
[10] = test system: SW-620 colon
[11] = test system: HL-60(TB) leukemia
[12] = test system: HCT-116 colon
[13] = test system: MDA-MB-435
[14] = test system: T-47D breast
[15] = test system: BT-549 breast
[16] = test system: UO-31 renal
[17] = test system: OVCAR-8 ovarian
[18] = test system: EKVX NSCLC
[19] = test system: NCI-H522 lung
[20] = test system: M14 melanoma
[21] = test system: OVCAR-3 ovarian
[22] = test system: UACC-257 melanoma
[23] = test system: OVCAR-4 ovarian
[24] = test system: MDA-MB-231 breast
[25] = test system: COLO 205 colon
[26] = test system: NCI-H460 lung
[27] = test system: UACC-62 melanoma
[28] = test system: NCI-H226 lung
[29] = test system: SK-MEL-28 melanoma
[30] = test system: HOP-92 NSCLC
[31] = test system: OVCAR-5 ovarian
[32] = test system: MCF7 breast
[33] = test system: SNB-19 CNS
[34] = test system: MALME-3M melanoma
[35] = test system: SN12C renal
[36] = test system: SNB-75 CNS
[37] = test system: SR leukemia
[38] = test system: SK-OV-3 ovarian
[39] = test system: CCRF-CEM leukemia
[40] = test system: A549 NSCLC
[41] = test system: RPMI-8226 leukemia
[42] = test system: HCT-15 colon
[43] = test system: LOX IMVI melanoma
[44] = test system: MOLT-4 leukemia
[45] = test system: K-562 leukemia
[46] = test system: MDA-N
[47] = test system: 786-0 renal
[48] = test system: U251 CNS
[49] = test system: SF-268 CNS
[50] = test system: TK-10 renal
[51] = test system: HOP-62 NSCLC
[52] = test system: SK-MEL-2 melanoma
[53] = test system: PC-3 prostate
[54] = test system: IGROV1 ovarian
[55] = test system: KM12 colon
[56] = test system: HS 578T breast
[57] = test system: SF-539 CNS
[58] = test system: NCI-H23 lung

Measured: TGI

CC1=NN(c2ccccc2)C(=O)C1N=Nc1ccc(S(N)(=O)=O)cc1 (stereo not drawn)
> 100 µM: all assays above
